Activity calls are given as the source filed them. No cut-off for these calls is given here.
Tests used:
[1] = Cmax in monkey plasma at 6 mg/kg, po administered as single dose measured after 24 hrs by LC-MS/MS analysis; type: ADME, organism-based, Macaca mulatta; design: dose 6 mg/kg, route oral; conditions: rhesus monkey
[2] = Cytotoxicity against human Hut/CCR5 cells assessed as reduction in cell viability at 0.1 to 10 nM measured after 120 hrs by MTT assay; type: cell-based; conditions: 0.01 µM
[3] = Drug metabolism in human PBMC-derived CD14-positive monocytes assessed as FNC-TP formation at 350 nM measured after 4 hrs by LC-MS/MS analysis; type: ADME; conditions: 0.35 µM
[4] = system: Human immunodeficiency virus 1; assay: Antiviral activity against JRFL pseudotyped HIV1 infected in human Hut/CCR5 cells preincubated for 3 hrs followed by compound washout and subsequent compound redosing and measured after 72 hrs by luciferase reporter gene based assay; type: functional, organism-based; conditions: Human immunodeficiency virus 1, Hut/CCR5
[5] = Cmax in monkey plasma at 6 mg/kg, po administered as single dose by LC-MS/MS analysis; type: ADME, organism-based, Macaca mulatta; design: dose 6 mg/kg, route oral; conditions: rhesus monkey
[6] = target: Virion infectivity factor (Human immunodeficiency virus type 1 group M subtype B (isolate NY5)(HIV-1)) (UniProt P12504); assay: Inhibition of HIV1 HA-tagged Vif expressed in HEK293T cells co-expressing eGFP-tagged pcDNA-APOBEC3G assessed as reduction in Vif-mediated A3G degradation at 10 nM measured after 48 hrs by flow cytometry; type: cell-based; conditions: Human immunodeficiency virus 1, HEK-293T
Chain of Virion infectivity factor (Human immunodeficiency virus type 1 group M subtype B (isolate NY5)(HIV-1)) (P12504 whole entry): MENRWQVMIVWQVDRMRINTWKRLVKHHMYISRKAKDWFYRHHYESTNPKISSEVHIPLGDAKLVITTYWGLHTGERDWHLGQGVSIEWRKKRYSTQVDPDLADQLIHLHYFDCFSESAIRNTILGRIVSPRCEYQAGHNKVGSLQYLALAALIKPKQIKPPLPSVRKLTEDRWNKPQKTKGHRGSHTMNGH

[7] = Elimination half life in monkey PBMC assessed as FNC-TP level at 1 mg/kg, po administered as single dose by LC-MS/MS analysis; type: ADME, organism-based, Macaca mulatta; conditions: rhesus monkey, in vivo
[8] = Binding affinity to HIV1 Vif and CBFbeta-ELOB-ELOC complex (unknown origin) by CM5 chip based assay
[9] = system: Human immunodeficiency virus 1; assay: Antiviral activity against JRFL pseudotyped HIV1 infected in human Hut/CCR5 cells assessed as time needed to reach 50% reduction of virus infection at 10 nM incubated with cells for 4 hrs prior to compound washout followed by viral infection and measured after 72 hrs by luciferase reporter gene assay; type: functional
[10] = system: Human immunodeficiency virus 1; assay: Synergistic antiviral activity against JRFL pseudotyped HIV1 infected in human Hut/CCR5 cells assessed as combination index in presence of rilpivirine by luciferase reporter gene based assay; type: functional

## [N-]=[N+]=N[C@]1(CO)O[C@@H](n2ccc(N)nc2=O)[C@@H](F)[C@@H]1O [RO-0622]
[1]
  Cmax: 6.5 nM
[2]
  Activity: Non-Toxic
[3]
  Drug metabolism: Metabolite_Detected
[4]
  EC50: 0.0136 nM
[5]
  Cmax: 2070 nM
[6]
  inhibition: Active
[7]
  beta t1/2: 133.15 h
[8]
  Kd: 87 nM
[9]
  Time: 123.06 to 123.1 h
[10]
  CI50: 0.113
  CI75: 0.0902
  CI90: 0.07208
  CI95: 0.06194

— ChEMBL document CHEMBL4619799, “Mechanistic Insight into Antiretroviral Potency of 2'-Deoxy-2'-β-fluoro-4'-azidocytidine (FNC) with a Long-Lasting Effect on HIV-1 Prevention” (J Med Chem, 2020)
